Columns and labels:
[1] = tested on: Human L2987 lung carcinoma xenografts; experiment: Antitumor testing versus s.c. L2987 lung carcinoma xenografts in nude mice; type: in vivo; conditions: for T-C: tumor target 1.0 g
Description: (§1) Compounds. The oral taxane (Ia) was synthesized by Bristol-Myers Squibb (BMS) chemists. The compound was dissolved initially in equal portions of Cremophor EL and ethanol, followed by aqueous dilution to yield final ethanol and Cremophor EL concentrations of 10%.
(§2) Animals. Athymic (“nude”) mice, 5–6 weeks of age, purchased from Harlan Sprague Dawley (Indianapolis, Ind.), were quarantined for ˜2 weeks before their use for tumor propagation and drug efficacy testing. They were fed food and water ad libitum. All studies involving these animals were conducted in accordance with NIH (Bethesda, Md.) and Bristol Myers-Squibb animal care and use guidelines.
(§3) Tumors. Human L2987 lung and GEO colon carcinomas were maintained in nude mice by serial s.c. passage. All efficacy testing involved tumors implanted s.c. in nude mice.
(§4) Antitumor Testing. A detailed description of the methods used to assess antitumor effects has been provided previously in Rose, W. C., Fairchild, C., and Lee, F. Y. F. Preclinical antitumor activity of two novel taxanes. Cancer Chemother. Pharmacol. 47: 97–105, 2001. […] Delays in tumor growth are also converted to log cell kill (LCK) values by methods described in the same article. Statistical evaluations of data were performed using Gehan's generalized Wilcoxon test for comparisons of time to reach tumor target size. Statistical significance was declared at P<0.05. Group sizes typically consisted of eight mice. Activity was defined as ≧1 LCK.
(§5) Definitions of MTD and OD have been published previously in the above-noted article. Therapeutic results were reported at the OD, i.e., that yielding the best effect without exceeding the MTD. Therapeutic synergy represents a therapeutic effect achieved with a tolerated regimen of a combination treatment that exceeds the optimal effect achieved at any tolerated dose of monotherapy associated with the same drugs used in the combination. Cured mice are defined as those whose tumors are ≦35 mg when assessed 10 tumor volume doubling times (based on control tumor growth between 500 mg and 1 g) post-termination of treatment. A regimen was described as “toxic” if more than one mouse died during or within 10 days following the final drug treatment, or anytime after the initiation of drug therapy whose tumor size at the time of death was below 1 g.

[2] = tested on: Human GEO colon carcinoma xenografts; experiment: Antitumor testing versus s.c. GEO colon carcinoma xenografts in nude mice; type: in vivo; parameters: key: Treatment resulting in more than one death is described as “TOX” (i.e., toxic); conditions: q3dx6 from Day 11
Description: as §1, §2, §3, §4, §5

[3] = Tolerability (body weight change, deaths, MTD) in nude mice bearing L2987 tumors; type: in vivo
Description: as §1, §2, §5

[4] = Tolerability (body weight change, deaths, MTD) in nude mice bearing GEO tumors; type: in vivo
Description: as §1, §2, §5

[5] = Phase I clinical trial, weekly schedule of administration; type: in vivo, human
Description: The preclinical activity of Compound Ia was observed using several different schedules, with an intermittent administration regimen being optimal in one carefully examined tumor model. […] Heavily pretreated patients, typically having received two or three prior chemo/radiotherapies, have responded to weekly Compound Ia. All but one of the several responding patients had NSCLC, and all but one of these had previously received either a parenteral taxane or a small molecule anti-EGFR compound, gefitinib, or both. The purpose of our current investigations was to evaluate this oral taxane versus preclinical human tumor models using a multiple administration treatment regimen, in combination with an inhibitor of EGFR.

[6] = tested on: Human GEO colon carcinoma xenografts; conditions: known from earlier work; cited from earlier work
[7] = confirmatory study, q3dx6 from Day 20, Compound Ia 40 mg/kg/adm p.o.
[8] = confirmatory study, q3dx6 from Day 20, Compound Ia 60 mg/kg/adm p.o.
[9] = pilot study, q3dx4 from Day 22, Compound Ia 40 mg/kg/adm p.o.
[10] = pilot study, q3dx4 from Day 22, Compound Ia 60 mg/kg/adm p.o.

Structure (SMILES): COC(=O)OC12COC1CC(O)C1(C)C(=O)C(OC(C)=O)C3=C(C)C(OC(=O)C(O)C(NC(=O)OC(C)(C)C)C(C)(C)C)CC(O)(C(OC(=O)c4ccccc4)C21)C3(C)C (centres unmarked) [Compound Ia]
- LCK (log cell kill) [1, 7]: 0.5
- T-C [1, 7]: 14.5 days
- LCK (log cell kill) [1, 8]: 1.0
- T-C [1, 8]: 28.0 days
- LCK (log cell kill) [1, 9]: 0.2
- T-C [1, 9]: 5.5 days
- LCK (log cell kill) [1, 10]: 0.6
- T-C [1, 10]: 14.0 days
- LCK (log cell kill) ([2]; Compound Ia 40 mg/kg/adm p.o.): 0.3
- T-C ([2]; Compound Ia 40 mg/kg/adm p.o., tumor target 1.0 g): 4.0 days
- LCK (log cell kill) ([2]; Compound Ia 60 mg/kg/adm p.o.): 0.7
- T-C ([2]; Compound Ia 60 mg/kg/adm p.o., tumor target 1.0 g): 10.0 days
- LCK (log cell kill) ([2]; Compound Ia 90 mg/kg/adm p.o.): TOX
- T-C ([2]; Compound Ia 90 mg/kg/adm p.o.): TOX
- Average body weight change [3, 7]: 1.5 g
- Average body weight change [3, 8]: -0.9 g
- MTD, cumulative exposure ([3]; confirmatory study, 60 mg/kg/adm p.o. q3dx6, tolerated with minimal body weight loss): 360 mg/kg
- historical MTD, cumulative exposure ([3]; p.o., established using a schedule similar to q3dx4): approximately 300 mg/kg
- Average body weight change [3, 9]: 0.7 g
- Average body weight change [3, 10]: 1.0 g
- MTD ([4]; p.o., q3dx6): 60 mg/kg/adm
- Average body weight change ([4]; q3dx6 from Day 11, Compound Ia 40 mg/kg/adm p.o.): -2.6 g
- Average body weight change ([4]; q3dx6 from Day 11, Compound Ia 60 mg/kg/adm p.o.): -1.8 g
- dead/total ([4]; q3dx6 from Day 11, Compound Ia 90 mg/kg/adm p.o.): (3/8)
- Clinical toxicity [5]: manageable toxicity

Structure (SMILES): COc1cc2ncnc(Nc3ccc(F)c(Cl)c3)c2cc1OCCCN1CCOCC1 [gefitinib]
- Responsiveness of the GEO tumor model [6]: responsive

Source: US7132554B2, “Therapeutic synergy of anti-cancer compounds” (Bristol-Myers Squibb Company, priority 2004, dated 2006)
